In ChEMBL document CHEMBL2163248, “Classification of inhibitors of hepatic organic anion transporting polypeptides (OATPs): influence of protein expression on drug-drug interactions” (J Med Chem, 2012) one finds INH data, which are given here for 28 molecules.

*1 amine or outer side, *2 acyl side, *3 side chain or, on linkers, in order; H or OH if unused. Where a SMILES comes first, the peptide text is derived from it. Bridges are numbered along the chain shown (N, C = ends). [ ]: non-standard residue; d: D form. Trp(2-yl) = O=C([C@H](Cc1c([*:3])[nH]c2ccccc12)N[*:1])[*:2]; Leu(4R-OH,5-OH) = C[C@](O)(CO)C[C@H](N)C(=O)O; cisHyp = O=C(O)[C@@H]1C[C@H](O)CN1

Data set [1] has as its target T1, Solute carrier organic anion transporter family member 1B3 (Homo sapiens, UniProt Q9NPD5).
T1 sequence (Q9NPD5 whole entry): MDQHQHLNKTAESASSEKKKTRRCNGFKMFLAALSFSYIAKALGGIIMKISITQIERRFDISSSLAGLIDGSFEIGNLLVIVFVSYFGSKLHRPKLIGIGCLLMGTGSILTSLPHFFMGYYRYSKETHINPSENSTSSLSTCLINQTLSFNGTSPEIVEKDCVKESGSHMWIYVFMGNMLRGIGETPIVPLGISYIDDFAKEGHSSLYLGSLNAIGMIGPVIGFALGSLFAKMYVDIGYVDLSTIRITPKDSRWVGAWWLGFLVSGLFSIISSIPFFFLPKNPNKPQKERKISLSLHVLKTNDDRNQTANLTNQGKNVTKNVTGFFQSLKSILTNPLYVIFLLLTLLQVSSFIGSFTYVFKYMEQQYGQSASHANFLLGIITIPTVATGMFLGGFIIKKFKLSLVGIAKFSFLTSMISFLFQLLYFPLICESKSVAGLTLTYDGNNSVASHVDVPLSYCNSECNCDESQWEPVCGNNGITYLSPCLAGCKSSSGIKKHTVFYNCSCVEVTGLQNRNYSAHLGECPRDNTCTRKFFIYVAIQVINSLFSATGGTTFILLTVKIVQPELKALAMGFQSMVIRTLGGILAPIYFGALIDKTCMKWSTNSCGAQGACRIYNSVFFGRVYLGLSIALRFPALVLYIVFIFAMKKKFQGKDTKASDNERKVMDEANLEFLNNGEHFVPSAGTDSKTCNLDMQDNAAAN
The data set is described as follows: Inhibition of human liver OATP1B3 expressed in HEK293 Flp-In cells assessed as reduction in [3H]E17-betaG uptake at 20 uM incubated for 5 mins by scintillation counting. As to conditions: hek293, 5 min.

Data set [2] addresses T2, Solute carrier organic anion transporter family member 2B1 (Homo sapiens, UniProt O94956).
T2 sequence (O94956 whole entry): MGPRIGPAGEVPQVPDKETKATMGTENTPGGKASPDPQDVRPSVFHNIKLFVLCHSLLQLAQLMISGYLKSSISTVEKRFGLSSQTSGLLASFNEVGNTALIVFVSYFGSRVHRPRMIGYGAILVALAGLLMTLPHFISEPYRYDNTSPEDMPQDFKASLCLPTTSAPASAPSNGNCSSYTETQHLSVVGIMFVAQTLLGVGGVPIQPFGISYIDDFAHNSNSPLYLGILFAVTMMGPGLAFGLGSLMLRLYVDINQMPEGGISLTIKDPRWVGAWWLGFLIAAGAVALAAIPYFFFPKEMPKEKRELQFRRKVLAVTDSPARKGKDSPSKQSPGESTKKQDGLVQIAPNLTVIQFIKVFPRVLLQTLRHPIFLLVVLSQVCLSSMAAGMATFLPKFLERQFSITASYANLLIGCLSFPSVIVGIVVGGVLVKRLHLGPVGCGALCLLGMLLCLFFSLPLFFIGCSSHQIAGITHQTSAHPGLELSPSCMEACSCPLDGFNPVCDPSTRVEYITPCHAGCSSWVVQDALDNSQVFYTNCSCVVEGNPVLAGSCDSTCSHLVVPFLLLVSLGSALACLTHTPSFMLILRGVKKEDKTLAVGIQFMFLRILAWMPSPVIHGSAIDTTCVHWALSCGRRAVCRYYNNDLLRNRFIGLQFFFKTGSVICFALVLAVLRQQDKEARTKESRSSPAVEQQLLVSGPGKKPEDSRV
The data set is described as follows: Inhibition of human liver OATP2B1 expressed in HEK293 Flp-In cells assessed as reduction in [3H]E3S uptake at 20 uM incubated for 5 mins by scintillation counting. As to conditions: hek293, 5 min.

For data set [3], the target named is T3, Solute carrier organic anion transporter family member 1B1 (Homo sapiens, UniProt Q9Y6L6).
T3 sequence (Q9Y6L6 whole entry): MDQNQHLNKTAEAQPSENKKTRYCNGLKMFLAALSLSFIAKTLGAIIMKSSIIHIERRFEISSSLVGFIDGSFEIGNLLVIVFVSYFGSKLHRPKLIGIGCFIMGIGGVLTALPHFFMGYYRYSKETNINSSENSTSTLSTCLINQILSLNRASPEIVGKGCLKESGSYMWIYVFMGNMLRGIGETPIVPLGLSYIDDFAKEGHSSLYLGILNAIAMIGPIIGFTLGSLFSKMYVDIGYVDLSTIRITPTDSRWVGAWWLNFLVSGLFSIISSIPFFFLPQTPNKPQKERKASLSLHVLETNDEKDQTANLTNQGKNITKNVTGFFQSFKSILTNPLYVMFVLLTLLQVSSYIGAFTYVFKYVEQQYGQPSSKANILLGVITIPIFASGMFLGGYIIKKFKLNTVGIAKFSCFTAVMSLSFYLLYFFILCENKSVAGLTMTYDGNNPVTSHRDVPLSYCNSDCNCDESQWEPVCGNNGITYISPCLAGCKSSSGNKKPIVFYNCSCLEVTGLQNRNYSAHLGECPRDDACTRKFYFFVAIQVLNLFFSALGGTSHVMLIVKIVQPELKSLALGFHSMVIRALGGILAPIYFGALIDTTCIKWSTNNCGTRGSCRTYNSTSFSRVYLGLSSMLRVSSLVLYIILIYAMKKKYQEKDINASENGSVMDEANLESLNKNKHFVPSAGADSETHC
Nature of the data set: Inhibition of human liver OATP1B1 expressed in HEK293 Flp-In cells assessed as reduction in E17-betaG uptake at 20 uM by scintillation counting. As to conditions: hek293, 20 µM.

On to `CC(C)(C)NC(=O)[C@@H]1CN(Cc2cccnc2)CCN1C[C@@H](O)C[C@@H](Cc1ccccc1)C(=O)N[C@H]1c2ccccc2C[C@H]1O.O`, for which the figures for the INH in data set [1], in data set [2] and in data set [3] were 18.1%, 17.8% and 71.9%, respectively.

Consider `CCOC(=O)C1=C(C)NC(C)=C(C(=O)OC)C1c1cccc(Cl)c1Cl` (centres undefined) [FELODIPINE], for which the INH in data set [1] was 18.4%; in data set [2] it was 21.4%; in data set [3], 36.6%.

On to `CN(C)C(=O)C(CCN1CCC(O)(c2ccc(Cl)cc2)CC1)(c1ccccc1)c1ccccc1` [LOPERAMIDE], for which the INH in data set [1] amounted to 32.4%; in data set [2], 19.6%; in data set [3], 32.5%.

For the molecule `CC(C)N(CCC(C(N)=O)(c1ccccc1)c1ccccn1)C(C)C` (centres undefined) [DISOPYRAMIDE], the INH in data set [1] was 8.6%; in data set [2] it was 18.5%; in data set [3], 47.5%.

Turning to `CC[N+](CC)(CC)CC` [TETRYLAMMONIUM], the INH is given as 4.9% in data set [1], 6.7% in data set [2] and 25.9% in data set [3].

As for `COc1ccc2c(c1)[C@]13CCCC[C@@H]1[C@H](C2)N(C)CC3` [DEXTROMETHORPHAN], the INH in data set [1] is -21.9%; in data set [2] it was 15.9%; in data set [3] it was 36.3%.

Consider `C[C@@H]1NC(=O)[C@H](C[C@@](C)(O)CO)NC(=O)[C@@H]2Cc3c([nH]c4ccccc34)SC[C@H](NC(=O)[C@@H]([C@H](C)O)NC1=O)C(=O)N1C[C@@H](O)C[C@H]1C(=O)N[C@@H](C)C(=O)N2` [PHALLOIDIN] (cyclo(A[dT]C[cisHyp]A[Trp(2-yl)][Leu(4R-OH,5-OH)]); thioether 3-6), for which the INH in data set [1] is listed as 36.2%; in data set [2], 24.1%; in data set [3], 26.1%.

Consider `CC[C@@]1(O)C(=O)OCc2c1cc1n(c2=O)Cc2cc3c(CN(C)C)c(O)ccc3nc2-1` [TOPOTECAN], for which the INH in data set [1] is recorded as 17.3%; in data set [2], -39.2%; in data set [3], 36.7%.

As for `O=C1CC2(CCCC2)CC(=O)N1CCCCN1CCN(c2ncccn2)CC1` [BUSPIRONE], the INH in data set [1] is on record as -5.6%; in data set [2] it was -13.9%; in data set [3], 33.3%.

In the case of `CC[C@]1(O)C[C@@H]2CN(CCc3c([nH]c4ccccc34)[C@@](C(=O)OC)(c3cc4c(cc3OC)N(C)[C@H]3[C@@](O)(C(=O)OC)[C@H](OC(C)=O)[C@]5(CC)C=CCN6CC[C@]43[C@@H]65)C2)C1` [VINBLASTINE], the INH in data set [1] is on record as 54.3%; in data set [2], -9.3%; in data set [3], 57.6%.

For the molecule `CCOc1ccc(NC(C)=O)cc1` [PHENACETIN], the INH in data set [1] was -0.9%; in data set [2], -0.1%; in data set [3] it was 34.2%.

Consider `COC(=O)C1=C(C)NC(C)=C(C(=O)OC(C)C)C1c1cccc2nonc12` (centres undefined) [ISRADIPINE], for which the INH in data set [1] was found to be 7.7%; in data set [2], 12%; in data set [3], 47.5%.

Take `CN1CCC[C@@H]1Cc1c[nH]c2ccc(CCS(=O)(=O)c3ccccc3)cc12`: the INH amounted to 2.8% in data set [1], 0.4% in data set [2] and 31.7% in data set [3].

Regarding `C[C@]12CC[C@@H]3c4ccc(O)cc4CC[C@H]3[C@@H]1CC[C@@H]2O` [ESTRADIOL], the INH in data set [1] came to 39.3%; in data set [2], 47.4%; in data set [3], 102.8%.

Consider `CCCCC(=O)N(Cc1ccc(-c2ccccc2-c2nnn[nH]2)cc1)[C@H](C(=O)O)C(C)C`, for which the INH in data set [1] is recorded as 33.7%; in data set [2], 12.3%; in data set [3] it was 62.2%.

Take `CC(C)NCC(O)COc1cccc2[nH]ccc12` (centres undefined) [PINDOLOL]: the INH in data set [1] is given as 24.5%; in data set [2], -10.8%; in data set [3], -24.7%.

Regarding `COc1ccc(CCN2CCC(Nc3nc4ccccc4n3Cc3ccc(F)cc3)CC2)cc1` [ASTEMIZOLE], the INH in data set [1] was found to be 24.4%; in data set [2] it was 58.9%; in data set [3], 22.3%.

For the molecule `COc1cc2nc(N3CCN(C(=O)C4COc5ccccc5O4)CC3)nc(N)c2cc1OC` (centres undefined) [DOXAZOSIN], the INH in data set [1] was -17.3%; in data set [2], 45.8%; in data set [3] it was 28.8%.

Turning to `CC/C(=C(/CC)c1ccc(O)cc1)c1ccc(O)cc1` [DIETHYLSTILBESTROL], the results for the INH in data set [1], in data set [2] and in data set [3] were 31.1%, 68.1% and 62.1%, respectively.

For the molecule `CC(=O)CC(c1ccccc1)c1c(O)c2ccccc2oc1=O` (centres undefined) [WARFARIN], the INH in data set [1] is on record as -3.2%; in data set [2] it was 31.6%; in data set [3], 27.8%.

For `CC(C)C[C@H](NC(=O)[C@@H](O)[C@H](N)Cc1ccccc1)C(=O)O` [UBENIMEX], the values for the INH in data set [1], in data set [2] and in data set [3] were 31.8%, 20.7% and 10.9%, respectively.

`NCCCC[C@H](N[C@@H](CCc1ccccc1)C(=O)O)C(=O)N1CCC[C@H]1C(=O)O` [LISINOPRIL ANHYDROUS]: the INH in data set [1] turned out to be 9%; in data set [2] it was 19.2%; in data set [3] it was 4.6%.

Regarding `C=C(C)[C@@H]1CCC2=CC(=O)C[C@@H](C)[C@]2(C)C1` [NOOTKATONE], the values for the INH in data set [1], in data set [2] and in data set [3] were -3.2%, -72.2% and 25.6%, respectively.

On to `Cn1c(=O)c2c(ncn2C)n(C)c1=O` [CAFFEINE], for which the results for the INH in data set [1], in data set [2] and in data set [3] were 22.1%, 3.2% and -1.8%, respectively.

Consider `CC(C)(C)c1ccc(C(O)CCCN2CCC(C(O)(c3ccccc3)c3ccccc3)CC2)cc1` (centres undefined) [TERFENADINE], for which the INH was 33.3% in data set [1], 3.7% in data set [2] and 42.7% in data set [3].

Regarding `C[C@H](CCC(=O)NCC(=O)O)[C@H]1CC[C@H]2[C@@H]3[C@H](O)C[C@@H]4C[C@H](O)CC[C@]4(C)[C@H]3CC[C@]12C` [GLYCOCHENODEOXYCHOLATE], the INH in data set [1] turned out to be 72%; in data set [2], 65.3%; in data set [3], 80.2%.

With `COc1ccc2[nH]c([S+]([O-])Cc3ncc(C)c(OC)c3C)nc2c1` (centres undefined) [OMEPRAZOLE], the INH in data set [1] was 29.5%; in data set [2], 11.3%; in data set [3], 15.9%.

With `O=C(O)C[C@H](O)C[C@H](O)/C=C/c1c(C2CC2)nc2ccccc2c1-c1ccc(F)cc1` [PITAVASTATIN], the INH was found to be 94.3% in data set [1], 63.7% in data set [2] and 97.4% in data set [3].
